Experimental findings from patent US20240327433A1, “PYRIMIDOPYRAN COMPOUND” (Medshine Discovery Inc., priority 2021, published 2024) are described below.

Structures can show the parent of a compound that is named as a salt.

For one data set, the system named is p-ERK in GP2D cells. As to the kind of experiment: Assay of p-ERK inhibition in GP2D cells (HTRF). In kind it is cell-based. The conditions noted are these: 1 hour incubation. How it is done: The cell plate was inoculated in a carbon dioxide incubator at 37° C. overnight; • 2) 2 μL of the compound was weighed and added to 78 μL of the cell medium. After the mixture was mixed thoroughly, 20 μL of the solution of compound was weighed and added to the corresponding well of the cell plate. The cell plate was placed back to the carbon dioxide incubator and incubated for another 1 hour; • 3) After completion of the incubation, the cell supernatant was discarded. 50 μL of 1× cell lysate was added to each well. The mixture was incubated with shaking at room temperature for 30 minutes; • 4) Phospho-ERK1/2 Eu Cryptate antibody and Phospho-ERK1/2 d2 antibody were diluted 20-fold with detection buffer; • 5) 16 μL of cell lysate supernatant was weighed and added into each well of a new 384 white microwell plate, and then 2 μL of the diluted solution of Phospho-ERK1/2 Eu Cryptate antibody and 2 μL of the diluted solution of Phospho-ERK1/2 d2 antibody dilution were added. The mixture was incubated at room temperature for at least 4 hours; • 6) After completion of the incubation, HTRF was read with multi-label analyzer: excitation: 320 nm, emission: 615 nm, 665 nm; • 7). IC50 of the compounds to be assayed was calculated.
(In TR-FRET formats the signal depends on donor and acceptor labels being close together.)

A short description of data set [1]: Pharmacokinetic study of oral and intravenously injected compounds in CD-1 mouse. In kind it is in vivo. How it is done: To assay the pharmacokinetics of oral and intravenously injected compounds in CD-1 mouse. The assay compound was mixed with 5% DMSO+95% (10% HP-β-CD) aqueous solution. The mixture was vortexed and sonicated to prepare a clear solution of 0.5 mg/mL (intravenous) or a clear solution of 3 mg/mL (oral). The clear solution was filtered by a microporous membrane for use. […] Whole blood was collected for a certain period of time, and prepared to obtain plasma. Drug concentration was analyzed by LC-MS/MS method, and pharmacokinetic parameters were calculated by Phoenix WinNonlin software (Pharsight, USA).

Another data set relates to KRAS^G12D GP2D. The experiment in a line: Anti-cell proliferation effect in tumor cell line GP2D (CellTiter-Glo 3D). It is filed as cell-based. As to conditions: 120 hours. How it is done: (§1) In this assay, the effect of the compounds on inhibiting cell proliferation was studied by detecting the effect of the compounds on the cell activity in vitro in the tumor cell lines AsPC-1 and GP2D.
(§2) The tumor cell lines were cultured in a 37° C., 5% CO2 incubator according to the culture conditions indicated in the culture method. Cells were passaged regularly, and cells in logarithmic growth phase were used for plating.
(§3) Cells were stained with trypan blue and viable cells were counted.
(§4) The cell concentration was adjusted to an appropriate concentration.
(§5) To each well of a ULA culture plate was added 135 μL of cell suspension. To the blank control well was added the same volume of culture medium without cells.
(§6) After plating, the ULA culture plate was immediately centrifuged at room temperature at 1000 rpm for 10 minutes. Note: After completion of the centrifugation, subsequent operations must be processed carefully to avoid unnecessary shocks.
(§7) The culture plate was incubated in a 37° C., 5% CO2, 100% relative humidity incubator overnight.
(§8) 10× compound working solution (10× working solution in DMSO) was formulated, and then to the ULA culture plate was add 15 μL of 10× compound working solution, and to the vehicle control and blank control was added 15 μL of DMSO-cell culture medium mixture, respectively. […]
(§9) The luminescent signal was detected on a 2104 EnVision plate reader. […]
(Cellular ATP, detected with luciferase, serves as a proxy for viable cell number.)

The next data set deals with KRAS^G12D AsPC-1. As to the kind of experiment: Anti-cell proliferation effect in tumor cell line AsPC-1 (CellTiter-Glo 3D). It is filed as cell-based. As to conditions: Homo sapiens, ASPC1, AsPC-1, 120 hours. How it is done:
as §1, §2, §3, §4, §5, §6, §7, §8, §9

The target in another data set is KRAS^G12D (Homo sapiens (Human), UniProt P01116, G12D). As to the kind of experiment: Assay of activity of inhibiting KRAS^G12D (TR-FRET, SOS/GTP nucleotide exchange). In kind it is biochemical. The protocol: 20 mL of 1000 mM HEPES, 20 mL of 500 mM EDTA, 10 mL of 5 M sodium chloride, 0.1 mL of 100% Tween 20, and 949.9 mL of water were weighed and formulated to 1 L of solution. The solution was sterilized by filtration and stored at 4° C.
Chain of KRAS^G12D (P01116-2 other isoform, or with tags, fused parts or gaps G12D): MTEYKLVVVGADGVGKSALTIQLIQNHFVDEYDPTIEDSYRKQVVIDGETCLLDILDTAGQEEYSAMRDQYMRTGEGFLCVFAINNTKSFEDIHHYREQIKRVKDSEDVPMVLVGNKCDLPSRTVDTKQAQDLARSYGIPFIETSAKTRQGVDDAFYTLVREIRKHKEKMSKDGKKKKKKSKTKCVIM
20 mL of 1000 mM HEPES, 10 mL of 1000 mM magnesium chloride, 30 mL of 5 M sodium chloride, 0.05 mL of 100% Tween 20, and 939.95 mL of water were weighed and formulated to 1 L of solution. The solution was sterilized by filtration and stored at 4° C.
9.5 μL of 95 μM KRAS^G12D protein and 440.5 μL of KRAS nucleotide exchange buffer were weighed and mixed. The mixture was incubated at room temperature for 1 hour, and then formulated to […] of solution together with 8.4 μL of 17.9 μM Tb-SA, 1.8 μL of 5 mM Bodipy GDP and 9539.8 μL of KRAS assay buffer. After mixing, the solution was left to stand at room temperature for 6 hours, and stored at −80° C. • b. Assay reagents:
73.3 μL of KRAS/Bodipy GDP/Tb-SA mixture and 2126.7 μL of KRAS assay buffer were weighed and formulated to 2200 μL of solution.
1.59 μL of 166 μM SOS protein, 198 μL of 100 mM GTP and 2000.41 μL of KRAS assay buffer were weighed and formulated to 2200 μL of solution.
• 1) The concentration of a stock solution of the control compound was 1 mM, and the concentration of a stock solution of compounds to be assayed was 10 mM. […]

The mark [2] stands for this setting: male, CD-1, plasma, intravenous (IV), about 2 mg/kg.
[3] abbreviates: male, CD-1, plasma, oral (PO), about 30 mg/kg.

On to `Nc1ccc(C(F)(F)F)c([C@H]2Cc3nc(OC[C@@]45CCCN4C[C@H](F)C5)nc(N4CC5CCC(C4)N5)c3CO2)c1F` (single isomer, unassigned) [Compound 20B], for which, in the data set on p-ERK in GP2D cells, the IC50 was 1.3 nM. In data set [1] (setting [2]), this compound gave an AUC(0-t) of 0.371 µM·h, a C0 of 449 nM, a Vd of 97.2 L/kg and a clearance of 138 mL/min/kg. The compound also gave a half-life in data set [1] (setting [2]) of 11.2 h. In data set [1] (setting [3]), this compound gave an AUC(0-inf) of 4.71 µM·h, a Cmax of 2100 nM and a half-life of 14.4 h. In addition, in data set [1] (oral (PO), about 30 mg/kg, oral bioavailability), the F came to 85%.
`Cc1cc(N)c(F)c(C2Cc3nc(OC[C@@]45CCCN4C[C@H](F)C5)nc(N4CC5CC(C4)N5)c3CO2)c1C(F)(F)F` (stereo partly shown) [Compound 2 hydrochloride]: the IC50 came to 332 nM with KRAS^G12D GP2D and 1860 nM with KRAS^G12D AsPC-1.
For the compound `Cc1cc(N)c(F)c(C2Cc3nc(OC[C@@]45CCCN4C[C@H](F)C5)nc(N4CC5C=CC(C4)N5)c3CO2)c1C(F)(F)F` (stereo partly shown) [Compound 7 hydrochloride], the figures for the IC50 against KRAS^G12D and in the data set on p-ERK in GP2D cells were 0.1 nM and 1.1 nM, respectively.
For `Oc1cc(C2Cc3nc(OC[C@@]45CCCN4C[C@H](F)C5)nc(N4CC5CCC(C4)N5)c3CO2)c2ccccc2c1` (stereo partly shown) [Compound 8 hydrochloride], in that order: 78.3 nM and 78 nM.
The compound `Cc1cc(N)c(F)c(C2Cc3nc(OC[C@@]45CCCN4C[C@H](F)C5)nc(N4CC5CCC(C4)N5)c3CO2)c1C(F)(F)C(F)(F)F` (stereo partly shown) [Compound 12 formate] came in with an IC50 with p-ERK in GP2D cells of 20.9 nM.
Take `Cc1cc(N)c(F)c(C2Cc3nc(OC[C@@]45CCCN4C[C@H](F)C5)nc(N4CC5CCC(C4)N5)c3CO2)c1Cl` (stereo partly shown) [Compound 14 hydrochloride]: 5.2 nM corresponded to half-maximal inhibition in the data set with p-ERK in GP2D cells (IC50).
On the same count and under the same terms, with `Cc1cc(N)c(F)c(C2Cc3nc(OC[C@@]45CCCN4C[C@H](F)C5)nc(N4CC5CCC(C4)N5)c3CO2)c1Br` (stereo partly shown) [Compound 15 hydrochloride] the figure was 8.4 nM.
The same measure, in the same setting: the same measure for `Cc1cc(N)c(F)c(C2Cc3nc(OC[C@@]45CCCN4C[C@H](F)C5)nc(N4CC5CCC(C4)N5)c3CO2)c1I` (stereo partly shown) [Compound 16 hydrochloride]: 2.9 nM; for `C#Cc1c(C)cc(N)c(F)c1C1Cc2nc(OC[C@@]34CCCN3C[C@H](F)C4)nc(N3CC4CCC(C3)N4)c2CO1` (stereo partly shown) [Compound 17]: 27.1 nM; for `Cc1cc(N)c(F)c(C2Cc3nc(OC[C@@]45CCCN4C[C@H](F)C5)nc(N4CC5CCC(C4)N5)c3CO2)c1C#N` (stereo partly shown) [Compound 18]: 66.4 nM.
Take `C=Cc1c(C)cc(N)c(F)c1C1Cc2nc(OC[C@@]34CCCN3C[C@H](F)C4)nc(N3CC4CCC(C3)N4)c2CO1` (stereo partly shown) [Compound 19 hydrochloride]: the IC50 in the data set with p-ERK in GP2D cells came to 17.5 nM.
`Nc1cc(Cl)c(Br)c(C2Cc3nc(OC[C@@]45CCCN4C[C@H](F)C5)nc(N4CC5CCC(C4)N5)c3CO2)c1F` (stereo partly shown) [Compound 21 hydrochloride]: it took 2.6 nM to reach half-maximal inhibition in the data set on p-ERK in GP2D cells (IC50). Compared with the last compound, the IC50 is about 6.7-fold lower.
In turn, `Nc1cc(F)c(C(F)(F)F)c(C2Cc3nc(OC[C@@]45CCCN4C[C@H](F)C5)nc(N4CC5CCC(C4)N5)c3CO2)c1F` (stereo partly shown) [Compound 22 hydrochloride] displayed an IC50 with p-ERK in GP2D cells of 2.7 nM. The IC50 values of the last two compounds are within 1.5-fold of each other.
The same measure, in the same setting: the same measure for `Cc1cc(N)nc(C2Cc3nc(OC[C@@]45CCCN4C[C@H](F)C5)nc(N4CC5CCC(C4)N5)c3CO2)c1C(F)(F)F` (stereo partly shown) [Compound 23 formate]: 23.4 nM.
On the same count and under the same terms, the same measure for `Cc1cc(N)c(F)c(C2Cc3nc(OC[C@@]45CCCN4C[C@H](F)C5)nc(N4CC5CCC(C4)N5)c3CO2)c1C` (stereo partly shown) [Compound 25 hydrochloride]: 96.4 nM; for `Cc1cc(N)c(F)c(C2Cc3nc(OC[C@@]45CCCN4C[C@H](F)C5)nc(N4CC5CCC(C4)N5)c3CO2)c1C1CC1` (stereo partly shown) [Compound 27 hydrochloride]: 118 nM.

As a reminder, the IC50 is the concentration needed to halve the response being measured. High values mean lower potency, low ones higher potency. One may read the AUC(0-t) as the area under the concentration-time curve up to a stated or last time point. By half-life is commonly meant the time in which the quantity being followed falls by half. Broadly, the AUC(0-inf) is total exposure, with the tail of the curve extrapolated. High values mean high exposure, low ones low exposure. A word on the Cmax: it is the peak of the concentration-time curve.
